Patent US8809341B2, “2,4-pyrimidinediamine compounds and uses as anti-proliferative agents” (Rigel Pharmaceuticals, Inc., priority 2003, dated 2014)
pIC50: −log10 of the molar value. One block for each compound: values may come before it.

What was measured:
Format in all cases: cell-based
HCT116 = assay: in vitro antiproliferation assay, HCT116 (colon); details: HCT116 (colon); read-out: HCT116
Procedure: The IC50 values of various compounds against a various different tumor cell lines were determined using standard in vitro antiproliferation assays. The tumor cell lines tested were as follows: A549 (lung); H1299 (lung), ACHN (kidney/p53 wt), CAKI (renal cell carcinoma), NCI-H460 (lung); HCT116 (colon/p53w0; HELA (cervix/p53 wt), HUH7 (liver/p53 wt), HUVEC (primary endothelial), LNCAP (prostate), HT-29 (colon); MCF-7 (breast); MCF-7 (breast/ER positive), MDA MB435S (breast); MDA MB231 (breast/ER negative), DU145 (prostate); BxPC-3 (pancreatic); SKOV-3 (ovarian); HepG2 (hepatic), NDHF primary normal human dermal fibroblast), SKMEL28 (breast/p53mut), SKMEL5 (breast/p53 wt), U20S (bone) and PC3 (prostate). […] A blank indicates the specified compound was not tested against the specified cell line.
Many of the compounds were tested against other cell lines. Their activity is reported in TABLE 15, below, where +”, “−”, “−/+” or “+/−” values are as described for TABLES 1-14. Where the cell line includes a value in a parenthetical, the value indicates the seeding density at which the assay was performed

A549 cells = assay: in vitro antiproliferation assay, A549 (lung)
In short: (§1)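 Standard in vitro antiproliferation assays on tumour cell lines, including A549 and H1299 (both lung); IC50 values determined.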

H1299 cells = assay: in vitro antiproliferation assay, H1299 (lung)
In short: as §1

[1] = A549 (lung) cells, antiproliferation
[2] = H1299 (lung) cells, antiproliferation
[3] = IC50 class against A549 (lung) tumor cells
[4] = IC50 class against H1299 (lung) tumor cells
[5] = A549 (lung) cells, in vitro antiproliferation
[6] = H1299 (lung) cells, in vitro antiproliferation
[7] = Homo sapiens, IC50 class against A549 (lung) tumor cells
[8] = Homo sapiens, NCI-H1299, IC50 class against H1299 (lung) tumor cells
[9] = in vitro antiproliferation, A549 (lung) cells, Table 4, compounds with no designated stereochemistry tested as racemate
[10] = in vitro antiproliferation, H1299 (lung) cells, Table 4, compounds with no designated stereochemistry tested as racemate
[11] = Table 5, in vitro antiproliferation, A549 (lung) cells
[12] = Table 5, in vitro antiproliferation, H1299 (lung) cells

pIC50 (HCT116): ≥ 4.70
SMILES: CN1CCN(c2ccc(Nc3ncc(F)c(Nc4ccc5c(n4)NC(=O)C(C)(C)O5)n3)cc2)CC1 [compound 436]

pIC50 (HCT116): ≥ 4.70
SMILES: CN1CCN(c2ccc(Nc3ncc(F)c(Nc4ccc5c(n4)NC(=O)CO5)n3)cc2)CC1 [compound 435]

pIC50 (HCT116): ≥ 4.70
SMILES: CC(=O)N1CCN(c2ccc(Nc3ncc(F)c(Nc4ccc5c(n4)NC(=O)CO5)n3)cc2)CC1 [compound 419]

pIC50 (HCT116): ≥ 4.70
SMILES: CC(=O)N1CCN(c2ccc(Nc3ncc(F)c(Nc4ccc5c(n4)NC(=O)C(C)(C)O5)n3)cc2)CC1 [compound 432]

pIC50 (A549 cells; [3]): ≥ 4.70
pIC50 (H1299 cells; [4]): ≥ 4.70
SMILES: C=CCNc1ncc(F)c(N(C)c2ccc3c(c2)OCCO3)n1 [compound 1043]

pIC50 (A549 cells; [3]): ≥ 4.70
pIC50 (H1299 cells; [4]): ≥ 4.70
SMILES: CN1CCN(c2ccc(Nc3ncc(F)c(Nc4ccc5c(n4)NCCO5)n3)cc2Cl)CC1 [compound 615]

pIC50 (A549 cells; A549 (lung) cells): < 4.70
pIC50 (H1299 cells; H1299 (lung) cells): ≥ 4.70
SMILES: COc1ccc(Nc2nc(Nc3ccc4c(cnn4C(C)(C)CC4CCC4)c3)ncc2F)cc1Cl [compound 1098]

pIC50 (A549 cells; [3]): ≥ 4.70
pIC50 (H1299 cells; [4]): ≥ 4.70
SMILES: Cc1cc(Nc2ncc(F)c(NC(C)(C)C)n2)ccc1N1CCN(C)CC1 [compound 223]

pIC50 (A549 cells; [7]): < 4.70
pIC50 (H1299 cells; [8]): < 4.70
SMILES: CC(=O)N1CCN(c2ccc(Nc3ncc(F)c(Nc4cccc(Nc5ncc[nH]5)c4)n3)cc2)CC1 [compound 1058]

pIC50 (A549 cells; [7]): ≥ 4.70
pIC50 (H1299 cells; [8]): ≥ 4.70
SMILES: CN1CCN(c2ccc(Nc3ncc(F)c(Nc4cc(C5CC5)[nH]n4)n3)cc2)CC1 [compound 206]

pIC50 (A549 cells; A549 (lung) cells): ≥ 4.70
pIC50 (H1299 cells; H1299 (lung) cells): ≥ 4.70
SMILES: COc1ccc(Nc2nc(Nc3ccc4c(cnn4C(C)(C)CC4CC4)c3)ncc2F)cc1Cl [compound 1106]

pIC50 (A549 cells; [3]): ≥ 4.70
pIC50 (H1299 cells; [4]): ≥ 4.70
SMILES: CN1CCN(c2cccc(Nc3ncc(F)c(N(C)C4CCC4)n3)c2)CC1 [compound 129]

pIC50 (A549 cells; A549 (lung) cells): < 4.70
pIC50 (H1299 cells; H1299 (lung) cells): ≥ 4.70
SMILES: COc1cc(Nc2nc(Nc3ccc4cnn(C(C)(C)CC5CCCCC5)c4c3)ncc2F)ccc1F [compound 1097]

pIC50 (A549 cells; [3]): ≥ 4.70
pIC50 (H1299 cells; [4]): ≥ 4.70
SMILES: CNC(=O)COc1cccc(Nc2ncc(F)c(NC3CCC3)n2)c1 [compound 109]

pIC50 (A549 cells; Table 7, in vitro antiproliferation, A549 (lung) cells): < 4.70
pIC50 (H1299 cells; Table 7, in vitro antiproliferation, H1299 (lung) cells): < 4.70
SMILES: CCOC(=O)c1cc2cccc(Nc3ncc(F)c(NC4CCC4)n3)c2[nH]1 [compound 678]

pIC50 (A549 cells; [7]): ≥ 4.70
pIC50 (H1299 cells; [8]): ≥ 4.70
SMILES: CCOC(=O)N1CCN(c2ccc(Nc3ncc(F)c(Nc4cc(C5CC5)[nH]n4)n3)cc2)CC1 [compound 209]

pIC50 (A549 cells; A549 (lung) cells): ≥ 4.70
pIC50 (H1299 cells; H1299 (lung) cells): ≥ 4.70
SMILES: COc1ccc(Nc2nc(Nc3ccc4c(cnn4CC4CCCCC4)c3)ncc2F)cc1Cl [compound 1090]

pIC50 (A549 cells; [1]): < 4.70
pIC50 (H1299 cells; [2]): ≥ 4.70
SMILES: COc1ccc(N(C)c2nc(Nc3ccc(C)cc3)ncc2F)cc1Cl [compound 907]

pIC50 (A549 cells; [3]): ≥ 4.70
pIC50 (H1299 cells; [4]): ≥ 4.70
SMILES: CN1CCN(c2ccc(Nc3ncc(F)c(NC4CCCCC4)n3)cc2Cl)CC1 [compound 153]

pIC50 (A549 cells; [3]): ≥ 4.70
pIC50 (H1299 cells; [4]): ≥ 4.70
SMILES: CNc1ncc(F)c(N(C)c2ccc3c(c2)OCCO3)n1 [compound 1038]

pIC50 (A549 cells; [5]): ≥ 4.70
pIC50 (H1299 cells; [6]): ≥ 4.70
SMILES: COc1cc(Nc2nc(Nc3ccc(N4CCN(C(C)=O)CC4)cc3)ncc2F)cc(OC)c1 [compound 866]

pIC50 (A549 cells; [3]): ≥ 4.70
pIC50 (H1299 cells; [4]): ≥ 4.70
SMILES: CN1CCN(c2ccc(Nc3ncc(F)c(NC4CCC4)n3)cc2CO)CC1 [compound 174]

pIC50 (A549 cells; [7]): ≥ 4.70
pIC50 (H1299 cells; [8]): ≥ 4.70
SMILES: CCOC(=O)N1CCN(c2cccc(Nc3ncc(F)c(Nc4cc(C(C)(C)C)[nH]n4)n3)c2)CC1 [compound 201]

pIC50 (A549 cells; [3]): ≥ 4.70
pIC50 (H1299 cells; [4]): ≥ 4.70
SMILES: CC(=O)N1CCN(c2ccc(Nc3ncc(F)c(NC4CCCC4)n3)cc2)CC1 [compound 133]

pIC50 (A549 cells; [3]): ≥ 4.70
pIC50 (H1299 cells; [4]): ≥ 4.70
SMILES: CCOC(=O)N1CCC(Nc2nc(Nc3ccc(N4CCN(C)CC4)nc3)ncc2F)CC1 [compound 190]

pIC50 (A549 cells; [3]): ≥ 4.70
pIC50 (H1299 cells; [4]): ≥ 4.70
SMILES: Cc1cc(Nc2ncc(F)c(NC3CC(C)(C)N(C)C(C)(C)C3)n2)cnc1N1CCN(C)CC1 [compound 184]

pIC50 (A549 cells; [3]): ≥ 4.70
pIC50 (H1299 cells; [4]): ≥ 4.70
SMILES: CCN1CCN(c2ccc(Nc3ncc(F)c(NC(C)C)n3)cn2)CC1 [compound 225]

More lines, now with the values behind:

SMILES: Cc1cc(Nc2ncc(F)c(Nc3ccc4c(c3)NC(=O)C(C)(C)O4)n2)cc(Cl)c1O [compound 358]
pIC50 (HCT116): > 4.70

SMILES: CC(C)(C)OC(=O)NCc1ccc(Nc2ncc(F)c(Nc3ccc(CNC(=O)OC(C)(C)C)cc3)n2)cc1 [compound 1012]
pIC50 (A549 cells; [1]): ≥ 4.70
pIC50 (H1299 cells; [2]): ≥ 4.70

SMILES: COc1cc(Nc2nc(Nc3cc(OC)cc(C(F)(F)F)c3)ncc2F)cc(OC)c1 [compound 849]
pIC50 (A549 cells; [5]): ≥ 4.70
pIC50 (H1299 cells; [6]): ≥ 4.70

SMILES: COC(=O)c1cc(Nc2ncc(F)c(Nc3cc(C(=O)OC)cc(-c4ncco4)c3)n2)cc(-c2ncco2)c1 [compound 891]
pIC50 (A549 cells; [1]): < 4.70
pIC50 (H1299 cells; [2]): < 4.70

SMILES: Cc1cc(C)cc(Nc2nc(Nc3cc(Cl)c(Cl)c(Cl)c3)ncc2F)c1 [compound 899]
pIC50 (A549 cells; [1]): ≥ 4.70
pIC50 (H1299 cells; [2]): ≥ 4.70

SMILES: COc1ccc(Nc2ncc(F)c(Nc3ccc4c(c3)OCCO4)n2)c(C)c1 [compound 1046]
pIC50 (A549 cells; [3]): ≥ 4.70
pIC50 (H1299 cells; [4]): ≥ 4.70

SMILES: COc1cc(Cl)cc(Nc2ncc(F)c(Nc3ccc4c(c3)NC(=O)C(C)(C)O4)n2)c1 [compound 321]
pIC50 (A549 cells; [9]): ≥ 4.70
pIC50 (H1299 cells; [10]): ≥ 4.70

SMILES: CC(C)(C)OC(=O)NCc1cccc(Nc2ncc(F)c(Nc3cccc(CNC(=O)OC(C)(C)C)c3)n2)c1 [compound 1015]
pIC50 (A549 cells; [1]): ≥ 4.70
pIC50 (H1299 cells; [2]): ≥ 4.70

SMILES: Cc1cc(C)cc(Nc2nc(Nc3cc(C)c(Cl)c(Cl)c3)ncc2F)c1 [compound 896]
pIC50 (A549 cells; [1]): ≥ 4.70
pIC50 (H1299 cells; [2]): ≥ 4.70

SMILES: Cc1cc(C)cc(Nc2nc(Nc3cc(C)cc(C(F)(F)F)c3)ncc2F)c1 [compound 816]
pIC50 (A549 cells; [5]): ≥ 4.70
pIC50 (H1299 cells; [6]): < 4.70

SMILES: COc1cc(Nc2ncc(F)c(Nc3ccc4c(c3)OC(F)(F)O4)n2)cc(OC)c1 [compound 561]
pIC50 (A549 cells; [11]): ≥ 4.70
pIC50 (H1299 cells; [12]): ≥ 4.70

SMILES: COc1ccc(Nc2ncc(F)c(Nc3ccc4c(c3)NC(=O)C(C)S4)n2)cc1F (racemic) [compound 288]
pIC50 (A549 cells; [9]): ≥ 4.70
pIC50 (H1299 cells; [10]): ≥ 4.70

SMILES: COc1cc(OC)c(Nc2ncc(F)c(Nc3ccc4c(c3)NC(=O)[C@H](C)O4)n2)cc1Cl [compound 1141]
pIC50 (A549 cells; Homo sapiens, A549 (lung) cells): < 4.70
pIC50 (H1299 cells; Homo sapiens, NCI-H1299, H1299 (lung) cells): < 4.70

SMILES: COc1cc(Nc2ncc(F)c(Nc3cc(OC)cc(C(F)(F)F)c3)n2)cc(OC)c1 [compound 818]
pIC50 (A549 cells; [5]): ≥ 4.70
pIC50 (H1299 cells; [6]): ≥ 4.70

SMILES: COc1cc(Nc2ncc(F)c(Nc3ccc4c(c3)OC(F)(F)C(F)(F)O4)n2)cc(C(F)(F)F)c1 [compound 536]
pIC50 (A549 cells; [11]): ≥ 4.70
pIC50 (H1299 cells; [12]): ≥ 4.70

SMILES: COc1cc(Nc2nc(Nc3cc(C)cc(C(F)(F)F)c3)ncc2F)cc(C(F)(F)F)c1 [compound 820]
pIC50 (A549 cells; [5]): < 4.70
pIC50 (H1299 cells; [6]): ≥ 4.70

SMILES: COc1cc(Nc2ncc(F)c(Nc3cccc(OC(F)(F)F)c3)n2)cc(OC)c1 [compound 812]
pIC50 (A549 cells; [5]): ≥ 4.70
pIC50 (H1299 cells; [6]): ≥ 4.70

SMILES: Fc1cnc(Nc2cccc(-c3ncco3)c2)nc1Nc1ccc2c(c1)OC(F)(F)C(F)(F)O2 [compound 571]
pIC50 (A549 cells; [11]): ≥ 4.70
pIC50 (H1299 cells; [12]): ≥ 4.70

SMILES: COC(=O)COc1cccc(Nc2ncc(F)c(Nc3cccc(OCC(=O)OC)c3)n2)c1 [compound 724]
pIC50 (A549 cells; [5]): < 4.70
pIC50 (H1299 cells; [6]): ≥ 4.70

SMILES: CNC(=O)c1ccc(Nc2ncc(F)c(Nc3ccc(OC)c(OC)c3)n2)cc1Cl [compound 871]
pIC50 (A549 cells; [1]): ≥ 4.70
pIC50 (H1299 cells; [2]): ≥ 4.70

SMILES: Cc1cc(C)cc(Nc2ncc(F)c(Nc3ccc4c(c3)NC(=O)C(C)(C)S4(=O)=O)n2)c1 [compound 264]
pIC50 (A549 cells; [9]): < 4.70
pIC50 (H1299 cells; [10]): ≥ 4.70

SMILES: CN(C)c1ncc(F)c(N(C)c2ccc3c(c2)OCCO3)n1 [compound 1039]
pIC50 (A549 cells; [3]): ≥ 4.70
pIC50 (H1299 cells; [4]): ≥ 4.70
